Each structure is given as a SMILES string. In brackets after ≈: the same amount, converted by molar mass.

Type in all cases: in vivo
For data set [1], the system named is housefly adults. Nature of the data set: Test Example 3: pesticidal effects on housefly adults, Campbell's turn table, 0.2 % oil preparations. Conditions: 0.2 % oil preparation, 5 ml, present compounds as dl-trans isomers; for mortality at 0.2 %: Musca domestica, 24 h, after a day. The method, then:
dl-Trans isomers of the present compounds (1), (2), (3) and (4) were individually formulated by use of deodorized kerosene into 0.2 % oil preparations. As a control, pyrethrin was also formulated into a 0.2 % oil preparation.
Using the Campbell's turn table [Soap and Sanitary Chemicals; Vol. 14, No. 119 (1938)], 5 ml. of each of the above-mentioned oil preparations was sprayed. When 20 seconds had elapsed after the spraying, the shutter was opened, and a group of about 100 housefly adults were exposed to the settling mist for 10 minutes. Subsequently, the number of knocked down houseflies was counted to calculate the knock-down ratio. The houseflies were then transferred to another cage, fed and allowed to stand for a day at room temperature. Thereafter, the number of dead and alive houseflies was counted to calculate the mortality.

Data set [2] has as its system green rice leafhoppers. Briefly: Test Example 1: pesticidal effect on green rice leafhoppers, sprayed rice seedlings. The settings on record: for Mortality: 20 % emulsifiable concentrate diluted to 200 times, next day, 1440 min; for KT50 (50 % knock-down time): 20 % emulsifiable concentrate diluted with water to 200 times. The method, then:
The present compounds (1), (2), (3), (4), (5) and (6) were individually formulated according to ordinary procedure into 20 % emulsifiable concentrates. As a standard compound, 3,4-dimethylphenyl-N-methyl carbamate [hereinafter referred to as "Meobal" (registered trademark of Sumitomo Chemical Co., Ltd.)] was also formulated into a 20 % emulsifiable concentrate.
In flower pots of 9 cm. in diameter, about 20 rice seedlings per pot were grown to the stage of 3 to 4 leaves. Each of the above-mentioned emulsifiable concentrates was diluted with water to 200 times, and sprayed to the seedlings by use of a turn table. After air-drying, the seedlings were put in a 5 liter glass beaker, which was then covered at the top with gauze. Thereafter, 20 green rice leafhoppers were liberated into the beaker, and the number of knocked down insects was counted with lapse of time to calculate the value of KT50 (50 % knock-down time). On the next day, the number of dead and alive insects was counted to calculate the mortality.

The subject of data set [3] is diamondback moths. Briefly: Test Example 2: pesticidal effects on diamondback moth larvae, sprayed Chinese cabbage. The settings on record: for LC50: Plutella xylostella, 48 h, fourth instar larvae, after 2 days, from 20 % emulsifiable concentrates, read-out: LC50 (50 % lethal concentration); for Ratio of effect: relative to DDVP, defined as 1.0. How it is done:
The present compounds (1), (2), (3) and (4) were individually formulated according to ordinary procedure into 20 % emulsifiable concentrates. As a control, DDVP was also formulated into a 20 % emulsifiable concentrate.
Each of the above-mentioned emulsifiable concentrates was diluted with water to a test concentration, and 10 ml. of the resulting dilution was sprayed to the potted Chinese cabbages at the stage of 3 to 4 leaves. Subsequently, the cabbage leaves were put in a glass Petri dish of 14 cm. in diameter and 7 cm. in height, and 10 diamondback moth larvae at the fourth instar stage were liberated into the dish. After 2 days, the number of dead and alive larvae was counted to calculate the value of LC50 (50 % lethal concentration).

Take `CC(=CCOC(=O)C1C(C=C(Cl)Cl)C1(C)C)Cc1ccccc1` (stereo not drawn) [(4), 3-Methyl-4-phenyl-2-butene-1-yl 2',2'-dimethyl-3'-(2",2"-dichlorovinyl)-cyclopropanecarboxylate]: in data set [1], the “Ratio of knocked down houseflies after 10 minutes” value (from here on “Ratio of knocked down houseflies”) is 100% and the mortality at 0.2 % was 98%. Besides, in data set [2], the Mortality stood at 100% and the “KT50 (50 % knock-down time)” value was determined as 15 min. Moreover, in data set [3], the LC50 amounted to 75 µg/mL (≈ 212 µM) and the Ratio of effect is recorded as 4.9.

On to `CC1(C)C(C=C(Cl)Cl)C1C(=O)OC/C=C(\Cl)Cc1ccccc1` (stereo not drawn) [(1), 3-Chloro-4-phenyl-trans-2-butene-1-yl 2',2'-dimethyl-3'-(2",2"-dichlorovinyl)-cyclopropanecarboxylate], for which, in data set [1], the “Ratio of knocked down houseflies” value is given as 100% and the mortality at 0.2 % is 100%. In addition, in data set [2], the Mortality stood at 100% and the “KT50 (50 % knock-down time)” value was 19 min. In data set [3], the LC50 was 43 µg/mL (≈ 115 µM) and the Ratio of effect stood at 8.6.

As for `COP(=O)(OC)OC=C(Cl)Cl` [DDVP, 0,0-Dimethyl 0-2,2-dichlorovinyl phosphate, reference compound], the LC50 in data set [3] was determined as 370 µg/mL.

In the case of `CNC(=O)Oc1ccc(C)c(C)c1` [Meobal, 3,4-dimethylphenyl-N-methyl carbamate, reference compound], the “KT50 (50 % knock-down time)” value in data set [2] is reported as 24 min.

In the case of `CC1(C)C(C=C(Cl)Cl)C1C(=O)OC/C=C(\Br)Cc1ccccc1` (stereo not drawn) [(2), 3-Bromo-4-phenyl-trans-2-butene-1-yl 2',2'-dimethyl-3'-(2",2"-dichlorovinyl)-cyclopropanecarboxylate], in data set [1], the “Ratio of knocked down houseflies” value was determined as 100% and the mortality at 0.2 % was 99%. For the same molecule, in data set [2], the Mortality was 100% and the “KT50 (50 % knock-down time)” value came to 13 min. Moreover, in data set [3], the LC50 was 56 µg/mL (≈ 134 µM) and the Ratio of effect came to 6.6.

With `CC1(C)C(C=C(Cl)Cl)C1C(=O)OC/C(Cl)=C(\Cl)Cc1ccccc1` (stereo not drawn) [(6), 2,3-Dichloro-4-phenyl-trans-2-butene-1-yl 2',2'-dimethyl-3'-(2",2"-dichlorovinyl)-cyclopropanecarboxylate], in data set [2], the Mortality amounted to 100% and the “KT50 (50 % knock-down time)” value is reported as 21 min.

Take `CC1(C)C(C=C(Cl)Cl)C1C(=O)OCC=C(Cl)Cc1ccccc1` (stereo not drawn) [(5), 3-Chloro-4-phenyl-trans-2-butene-1-yl d-trans-2',2'-dimethyl-3' -(2",2"-dichlorovinyl)-cyclopropanecarboxylate]: in data set [2], the Mortality was found to be 100% and the “KT50 (50 % knock-down time)” value came out at 9 min.

On to `CC1(C)C(C=C(Cl)Cl)C1C(=O)OC/C=C/Cc1ccccc1` (stereo not drawn) [(3), 4-Phenyl-trans-2-butene-1-yl 2',2'-dimethyl-3'-(2",2"-dichlorovinyl)-cyclopropanecarboxylate], for which, in data set [1], the “Ratio of knocked down houseflies” value was 100% and the mortality at 0.2 % was 100%. Besides, in data set [2], the Mortality was 100% and the “KT50 (50 % knock-down time)” value amounted to 11 min. Further, in data set [3], the LC50 turned out to be 48 µg/mL (≈ 141 µM) and the Ratio of effect worked out at 7.7.

By mortality is commonly meant the share of the test organisms that died. Low readings indicate a weak lethal effect, high ones a strong lethal effect.
